Reference: ChEMBL document CHEMBL1201862, “PubChem BioAssay data set” (2004)
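Cultured in 96-well plates, cells were exposed to test compound for 48 hours across five concentrations. GI50 is the concentration that inhibits growth by half.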 Active and inactive are the calls of the source. Cut-off read from the data, not from the text of the source: active = GI50 up to about 1.1 µM and inactive = higher.

Assays:
Assay in all cases: growth of human tumour cells (NCI), 48 h
A498 = tested on: A498
CCRF-CEM = tested on: CCRF-CEM
COLO 205 = tested on: COLO 205
HT-29 = tested on: HT-29
IGROV-1 = tested on: IGROV-1
KM12 = tested on: KM12
LOX IMVI = tested on: LOX IMVI
M14 = tested on: M14
MDA-N = tested on: MDA-N
Malme-3M = tested on: Malme-3M
SF-268 = tested on: SF-268
SF-295 = tested on: SF-295
SK-MEL-2 = tested on: SK-MEL-2
SK-OV-3 = tested on: SK-OV-3
SNB-19 = tested on: SNB-19
T47D = tested on: T47D
UACC-257 = tested on: UACC-257
NCI-H522 = tested on: NCI-H522
OVCAR-5 = tested on: OVCAR-5
SR = tested on: SR

SMILES | GI50 (A498) | GI50 (CCRF-CEM) | GI50 (COLO 205) | GI50 (HT-29) | GI50 (IGROV-1) | GI50 (KM12) | GI50 (LOX IMVI) | GI50 (M14) | GI50 (MDA-N) | GI50 (Malme-3M) | GI50 (SF-268) | GI50 (SF-295) | GI50 (SK-MEL-2) | GI50 (SK-OV-3) | GI50 (SNB-19) | GI50 (T47D) | GI50 (UACC-257) | GI50 (NCI-H522) | GI50 (OVCAR-5) | GI50 (SR)
O=C(c1cccs1)N(C(=O)N1CCCCC1)c1ccccc1 | > 100 µM (inactive) | > 100 µM (inactive) | > 100 µM (inactive) | > 100 µM (inactive) | > 100 µM (inactive) | > 100 µM (inactive) | > 100 µM (inactive) | > 100 µM (inactive) | > 100 µM (inactive) | 2.25 µM (inactive) | > 100 µM (inactive) | > 100 µM (inactive) | > 100 µM (inactive) | > 100 µM (inactive) | > 100 µM (inactive) | > 100 µM (inactive) | > 100 µM (inactive) |  |  | 
CC1(C)CC(=O)C2=C(C1)NC(=S)C(C#N)C2c1ccccc1 (stereo unspecified) |  | > 100 µM (inactive) | > 100 µM (inactive) | > 100 µM (inactive) | > 100 µM (inactive) |  | > 100 µM (inactive) | > 100 µM (inactive) | > 100 µM (inactive) | > 100 µM (inactive) | > 100 µM (inactive) | > 100 µM (inactive) | > 100 µM (inactive) | > 100 µM (inactive) | > 100 µM (inactive) |  | > 100 µM (inactive) | > 100 µM (inactive) | > 100 µM (inactive) | 
N[C@@H]1c2c(Br)sc(Br)c2C(=O)[C@H]1Br | 35.2 µM (inactive) | 2.02 µM (inactive) | 1.88 µM (inactive) | 21.7 µM (inactive) | 20.6 µM (inactive) | 26.4 µM (inactive) | 15.7 µM (inactive) | 20.6 µM (inactive) |  | 21.7 µM (inactive) | 31.2 µM (inactive) | > 70.6 µM (inactive) | > 100 µM (inactive) | > 100 µM (inactive) | 45.9 µM (inactive) | 30.2 µM (inactive) | 18.6 µM (inactive) | 14.7 µM (inactive) | > 82.4 µM (inactive) | 16.1 µM (inactive)
O=S(=O)(O)C1CCC(O)C2NCCCC21 (stereo unspecified) | > 100 µM (inactive) |  | > 100 µM (inactive) | > 100 µM (inactive) | > 100 µM (inactive) | > 100 µM (inactive) | > 100 µM (inactive) | > 100 µM (inactive) |  | > 100 µM (inactive) | > 100 µM (inactive) | > 100 µM (inactive) | > 100 µM (inactive) | > 100 µM (inactive) | > 100 µM (inactive) | > 100 µM (inactive) | > 100 µM (inactive) | > 100 µM (inactive) | > 100 µM (inactive) | > 100 µM (inactive)
CC1(C)CC2=NO[Se]3=C2C(=NO3)C1 | 4.3 µM (inactive) | 3.06 µM (inactive) | 2.07 µM (inactive) | 0.929 µM (active) | 2.72 µM (inactive) | 2.64 µM (inactive) | 1.6 µM (inactive) | 1.99 µM (inactive) | 1.95 µM (inactive) |  | 5.3 µM (inactive) | 2.36 µM (inactive) | 5.78 µM (inactive) | 4.52 µM (inactive) | 4.08 µM (inactive) | 6.07 µM (inactive) | 2.17 µM (inactive) | 1.9 µM (inactive) | 5.11 µM (inactive) | 
CC1CC[C@@]2(OC1)OC1C[C@H]3[C@@H]4CC=C5CC(OC6OC(CO)C(OC7OC(CO)C(O)C(OC8OCC(O)C(O)C8O)C7OC7OC(CO)C(O)C(O)C7O)C(O)C6O)CCC5(C)[C@H]4CCC3(C)C1[C@@H]2C (stereo partly specified) | 4.69 µM (inactive) | 5.16 µM (inactive) | 4.59 µM (inactive) | 5.08 µM (inactive) | 3.94 µM (inactive) | 5.32 µM (inactive) | 4.48 µM (inactive) | 11.2 µM (inactive) |  | > 25 µM (inactive) | 4.84 µM (inactive) | 7.11 µM (inactive) | 11.7 µM (inactive) | 6.55 µM (inactive) | 10.3 µM (inactive) | 5.71 µM (inactive) | 6.47 µM (inactive) | 4.72 µM (inactive) | 8.51 µM (inactive) | 7.23 µM (inactive)
CCC/C=C/C=C/C1CC(O)C(O)C(=O)C1CO (stereo unspecified) |  | > 100 µM (inactive) | > 100 µM (inactive) | > 100 µM (inactive) | > 100 µM (inactive) | > 100 µM (inactive) | > 100 µM (inactive) | > 100 µM (inactive) | > 100 µM (inactive) |  | > 100 µM (inactive) | > 100 µM (inactive) | > 100 µM (inactive) | > 100 µM (inactive) | > 100 µM (inactive) | > 100 µM (inactive) | > 100 µM (inactive) | 55.2 µM (inactive) | > 100 µM (inactive) | 
CN(C)S(=O)(=O)Nc1nnc(S(N)(=O)=O)s1 | > 100 µM (inactive) |  | > 100 µM (inactive) | > 100 µM (inactive) | > 100 µM (inactive) | > 100 µM (inactive) |  | > 100 µM (inactive) |  | > 100 µM (inactive) | > 100 µM (inactive) | > 100 µM (inactive) | > 100 µM (inactive) | > 100 µM (inactive) | > 100 µM (inactive) | 64.3 µM (inactive) |  | > 100 µM (inactive) | > 100 µM (inactive) | > 100 µM (inactive)
O=C(Cn1c2c(c3ccccc31)CCCC2)N1CCCCC1 |  |  | > 100 µM (inactive) | > 100 µM (inactive) | > 100 µM (inactive) |  | > 100 µM (inactive) | > 100 µM (inactive) | > 100 µM (inactive) | > 100 µM (inactive) |  | > 100 µM (inactive) | > 100 µM (inactive) | > 100 µM (inactive) | > 100 µM (inactive) |  | > 100 µM (inactive) |  | > 100 µM (inactive) | > 100 µM (inactive)
O=C(NC1CCCCC1)c1cc2ccccc2cc1O | 25.4 µM (inactive) | 38.9 µM (inactive) | 53.1 µM (inactive) | 20.4 µM (inactive) | 35.5 µM (inactive) | 34.2 µM (inactive) | 38.8 µM (inactive) | 21.9 µM (inactive) |  |  | 46.1 µM (inactive) | 29.9 µM (inactive) | 23.3 µM (inactive) | 49.1 µM (inactive) | 31.1 µM (inactive) | 42.6 µM (inactive) | 36.6 µM (inactive) |  |  | 38.7 µM (inactive)
O=C1NC(N/N=C/c2ccccc2)=N/C1=C\c1ccco1 | > 100 µM (inactive) | 25.6 µM (inactive) | 57.4 µM (inactive) | 51.9 µM (inactive) | 16.9 µM (inactive) | 47.6 µM (inactive) |  | 46.2 µM (inactive) |  | > 100 µM (inactive) | 24.5 µM (inactive) | 33.1 µM (inactive) | 25.9 µM (inactive) | 54.2 µM (inactive) | 36.5 µM (inactive) | 26.9 µM (inactive) | > 100 µM (inactive) | 26.1 µM (inactive) | > 100 µM (inactive) | 
COC(=O)CCc1c(Cc2ccc[nH]2)[nH]c(C(=O)OCc2ccccc2)c1C | 28.9 µM (inactive) | 60.7 µM (inactive) | 17.5 µM (inactive) | 20.4 µM (inactive) | 15.6 µM (inactive) | 16.3 µM (inactive) | 19.7 µM (inactive) | 16.8 µM (inactive) | 18 µM (inactive) | 18.9 µM (inactive) | 23.2 µM (inactive) | 24.6 µM (inactive) | 15.4 µM (inactive) | > 100 µM (inactive) | 28.2 µM (inactive) |  | 18.4 µM (inactive) | 27.3 µM (inactive) | 35.9 µM (inactive) | 30.8 µM (inactive)
